Reference: US7786129B2, “Piperazine derivatives of dialkyl oxindoles” (Egis Gyogyszergyar Nyrt, priority 2004, dated 2010)
Structures can show the parent of a compound that is named as a salt.

Structure (SMILES) | melting point
CCC1(CCCCN2CCN(c3cccc(Cl)c3)CC2)C(=O)Nc2ccc(S(N)(=O)=O)cc21 (centres unmarked) (as salt: oxalate) [Example 72, 3-{4-[4-(3-Chlorophenyl)-piperazin-1-yl]-butyl}-3-ethyl-1,3-dihydro-2H-indol-2-one 5-sulfonamide monooxalate] | 188 to 190 °C
CCC1(CCCCN2CCN(c3cccc(Cl)c3)CC2)C(=O)Nc2ccc(F)cc21 (centres unmarked) (as salt: hydrochloride) [Example 85, 3-{4-[4-(3-Chlorophenyl)-piperazin-1-yl]-butyl}-3-ethyl-5-fluoro-1,3-dihydro-2H-indol-2-one mono-hydrochloride] | 121 to 124 °C
CCC1(CCCCN2CCN(c3ccc(OC)cc3)CC2)C(=O)Nc2ccccc21 (centres unmarked) [Example 74, 3-Ethyl-3-{4-[4-(4-methoxyphenyl)-piperazin-1-yl]-butyl}-1,3-dihydro-2H-indol-2-one] | 109 to 110 °C
CCC1(CCCCN2CCN(c3cccc(Cl)c3)CC2)C(=O)Nc2cc(F)c(Cl)cc21 (centres unmarked) (as salt: hydrochloride) [Example 89, 5-Chloro-3-{4-[4-(3-chlorophenyl)-piperazin-1-yl]-butyl}-3-ethyl-6-fluoro-1,3-dihydro-2H-indol-2-one monohydrochloride] | 237 to 239 °C
CCC1(CCCCN2CCN(c3ccc(Cl)cc3)CC2)C(=O)Nc2ccc(C)cc21 (centres unmarked) [Example 73, 3-{4-[4-(4-Chlorophenyl)-piperazin-1-yl]-butyl}-3-ethyl-5-methyl-1,3-dihydro-2H-indol-2-one] | 175 to 177 °C
CCC1(CCCCN2CCN(c3ccc(C)c(Cl)c3)CC2)C(=O)Nc2ccccc21 (centres unmarked) [Example 99, 3-{4-[4-(3-Chloro-4-methylphenyl)-piperazin-1-yl]-butyl}-3-ethyl-1,3-dihydro-2H-indol-2-one] | 103 to 106 °C
CCC1(CCCCN2CCN(c3ccccn3)CC2)C(=O)Nc2ccc(F)cc21 (centres unmarked) [Example 84, 3-Ethyl-5-fluoro-3-[4-(4-pyridin-2-yl-piperazin-1-yl)-butyl]-1,3-dihydro-2H-indol-2-one] | 144 to 147 °C
CCC1(CCCCN2CCN(c3ccccn3)CC2)C(=O)Nc2ccc(Cl)cc21 (centres unmarked) [Example 66, 5-Chloro-3-ethyl-3-[4-(4-pyridin-2-yl-piperazin-1-yl)-butyl]-1,3-dihydro-2H-indol-2-one] | 154 to 156 °C
CCC1(CCCCN2CCN(c3ccccc3)CC2)C(=O)Nc2ccccc21 (centres unmarked) (as salt: oxalate) [Example 68, 3-[4-(4-Phenylpiperazin-1-yl)-butyl]-3-ethyl-1,3-dihydro-2H-indol-2-one monooxalate] | 121 to 123 °C
CCC1(CCCCN2CCN(c3ccc(Cl)c(C(F)(F)F)c3)CC2)C(=O)Nc2ccccc21 (centres unmarked) (as salt: hydrochloride) [Example 96, 3-{4-[4-(4-Chloro-3-trifluoromethyl-phenyl)-piperazin-1-yl]-butyl}-3-ethyl-1,3-dihydro-2H-indol-2-one monohydrochloride] | 204 to 206 °C
CCC1(CCCCN2CCN(c3ccccc3Cl)CC2)C(=O)Nc2ccccc21 (centres unmarked) [Example 81, 3-{4-[4-(2-Chlorophenyl)-piperazin-1-yl]-butyl}-3-ethyl-1,3-dihydro-2H-indol-2-one] | 145 to 148 °C
CCC1(CCCCN2CCN(c3cccc(Cl)c3)CC2)C(=O)Nc2cc(F)ccc21 (centres unmarked) [Example 77, 3-{4-[4-(3-Chlorophenyl)-piperazin-1-yl]-butyl}-3-ethyl-6-fluoro-1,3-dihydro-2H-indol-2-one] | 116 to 117 °C
CCC1(CCCCN2CCN(c3cccc(Cl)c3)CC2)C(=O)Nc2ccc(Br)cc21 (centres unmarked) (as salt: oxalate) [Example 61, 5-Bromo-3-{4-[4-(3-chlorophenyl)-piperazin-1-yl]-butyl}-3-ethyl-1,3-dihydro-2H-indol-2-one monooxalate] | 200 to 202 °C
CCC1(CCCCN2CCN(c3cccc(Cl)c3)CC2)C(=O)Nc2ccccc21 (centres unmarked) (as salt: HCl) (hydrate or solvate) [Example 60, 3-{4-[4-(3-Chlorophenyl)-piperazin-1-yl]-butyl}-3-ethyl-1,3-dihydro-2H-indol-2-one-H2O—HCl-isopropanol (1:1:1:1)] | 109 to 111 °C
CCC1(CCCCN2CCN(c3cccc(OC)c3)CC2)C(=O)Nc2ccccc21 (centres unmarked) [Example 91, 3-Ethyl-3-{4-[4-(3-methoxyphenyl)-piperazin-1-yl]-butyl}-1,3-dihydro-2H-indol-2-one] | 123 to 125 °C
CCC1(CCCCN2CCN(c3ccccn3)CC2)C(=O)Nc2ccc(C)cc21 (centres unmarked) [Example 80, 3-Ethyl-5-methyl-3-[4-(4-pyridin-2-yl-piperazin-1-yl)-butyl]-1,3-dihydro-2H-indol-2-one] | 168 to 170 °C
CCC1(CCCCCN2CCN(c3ccccn3)CC2)C(=O)Nc2ccccc21 (centres unmarked) [Example 93, 3-Ethyl-3-[5-(4-pyridin-2-yl-piperazin-1-yl)-pentyl]-1,3-dihydro-2H-indol-2-one] | 127 to 128 °C
CCC1(CCCCN2CCN(c3cccc(Cl)c3)CC2)C(=O)Nc2ccc(Cl)cc21 (centres unmarked) [Example 67, 5-Chloro-3-{4-[4-(3-chlorophenyl)-piperazin-1-yl]-butyl}-3-ethyl-1,3-dihydro-2H-indol-2-one] | 139 to 142 °C
CCC1(CCCCN2CCN(c3cccc4c3OCCO4)CC2)C(=O)Nc2cc(F)ccc21 (centres unmarked) [Example 83, 3-{4-[4-(2,3-Dihydrobenzo[1,4]dioxin-5-yl)-piperazin-1-yl]-butyl}-3-ethyl-6-fluoro-1,3-dihydro-2H-indol-2-one] | 146 to 147 °C
CCC1(CCCN2CCN(c3ccccn3)CC2)C(=O)Nc2ccccc21 (centres unmarked) [Example 58, 3-Ethyl-3-[3-(4-pyridin-2-yl-piperazin-1-yl)-propyl]-1,3-dihydro-2H-indol-2-one] | 122 to 124 °C
CCC1(CCCCCCN2CCN(c3cccc(Cl)c3)CC2)C(=O)Nc2ccccc21.Cl (centres unmarked) | 124 to 127 °C

The remaining lines, values ahead:

melting point | Structure (SMILES)
152 to 155 °C | CCC1(CCCCN2CCN(c3ccc(Cl)c(Cl)c3)CC2)C(=O)Nc2ccc(F)cc21 (centres unmarked) [Example 115, 3-{4-[4-(3,4-dichlorophenyl)-piperazin-1-yl]-butyl}-3-ethyl-5-fluoro-1,3-dihydro-2H-indol-2-one]
186 to 188 °C | CCC1(CCCCN2CCN(c3ccc(Cl)cc3)CC2)C(=O)Nc2ccc(Cl)cc21 (centres unmarked) [Example 121, 5-chloro-3-{4-[4-(4-chlorophenyl)-piperazin-1-yl]-butyl}-3-ethyl-1,3-dihydro-indol-2-one]
164 to 165 °C | CCC1(CCCCN2CCN(c3ccc(Cl)c(Cl)c3)CC2)C(=O)Nc2c(Cl)cc(Cl)cc21 (centres unmarked) [Example 124, 5,7-dichloro-3-{4-[4-(3,4-dichlorophenyl)-piperazin-1-yl]-butyl}-3-ethyl-1,3-dihydro-2H-indol-2-one]
122 to 124 °C | CCC1(CCCCN2CCN(c3cc(Cl)cc(Cl)c3)CC2)C(=O)Nc2ccc(F)cc21 (centres unmarked) [Example 114, 3-{4-[4-(3,5-dichlorophenyl)-piperazine-1-yl]-butyl}-3-ethyl-5-fluoro-1,3-dihydro-2H-indol-2-one]
121 to 124 °C | CCC1(CCCCN2CCN(c3ccc(F)c(Cl)c3)CC2)C(=O)Nc2ccccc21 (centres unmarked) [Example 100, 3-{4-[4-(3-Chloro-4-fluorophenyl)-piperazin-1-yl]-butyl}-3-ethyl-1,3-dihydro-2H-indol-2-one]
119 to 122 °C | CCC1(CCCCN2CCN(c3ccc(F)cc3)CC2)C(=O)Nc2ccc(F)cc21 (centres unmarked) [Example 111, 3-Ethyl-5-fluoro-3-{4-[4-(4-fluorophenyl)-piperazine-1-yl]-butyl}-1,3-dihydro-2H-indol-2-one]
119 to 120 °C | CCC1(CCCN2CCN(c3cccc(Cl)c3)CC2)C(=O)Nc2ccccc21 (centres unmarked) [Example 108, 3-{3-[4-(3-Chlorophenyl)-piperazin-1-yl]-propyl}-3-ethyl-1,3-dihydro-2H-indol-2-one]
125 to 126 °C | CCC1(CCCCN2CCN(c3ccc(F)cc3Cl)CC2)C(=O)Nc2ccccc21 (centres unmarked) [Example 126, 3-{4-[4-(2-chloro-4-fluorophenyl)-piperazin-1-yl]-butyl}-3-ethyl-1,3-dihydro-2H-indol-2-one]
146 to 149 °C | CCC1(CCCCN2CCN(c3ccc(F)cc3)CC2)C(=O)Nc2ccc(C)cc21 (centres unmarked) [Example 113, 3-Ethyl-3-{4-[4-(4-fluorophenyl)-piperazin-1-yl]-butyl}-5-methyl-1,3-dihydro-2H-indol-2-one]
194 to 197 °C | CCC1(CCCCN2CCN(c3ccc(Cl)cc3)CC2)C(=O)Nc2cc(F)c(Cl)cc21 (centres unmarked) [Example 122, 5-chloro-3-{4-[4-(4-chlorophenyl)-piperazin-1-yl]-butyl}-3-ethyl-6-fluoro-1,3-dihydro-2H-indol-2-one]
145 to 148 °C | CCC1(CCCCCN2CCN(c3ccc(Cl)cc3)CC2)C(=O)Nc2c(Cl)cc(Cl)cc21 (centres unmarked) [Example 125, 5,7-Dichloro-3-{5-[4-(4-chlorophenyl)-piperazin-1-yl]-pentyl}-3-ethyl-1,3-dihydro-2H-indol-2-one]
168 to 170 °C | CC1(CCCCN2CCN(c3ccc(Cl)cc3)CC2)C(=O)Nc2c(Cl)cc(Cl)cc21 (centres unmarked) [Example 128, 5,7-dichloro-3-{4-[4-(4-chlorophenyl)-piperazin-1-yl]-butyl}-3-methyl-1,3-dihydro-2H-indol-2-one]
161 to 162 °C | CCC1(CCCCN2CCN(c3ccc(F)cc3)CC2)C(=O)Nc2c(Cl)cc(F)cc21 (centres unmarked) [Example 119, 7-chloro-3-ethyl-5-fluoro-3-{4-[4-(4-fluorophenyl)-piperazin-1-yl]-butyl}-1,3-dihydro-2H-indol-2-one]
142 to 143 °C | CCC1(CCCCCN2CCN(c3ccc(Cl)cc3)CC2)C(=O)Nc2ccccc21 (centres unmarked) [Example 123, 3-{5-[4-(4-chlorophenyl)-piperazin-1-yl]-pentyl}-3-ethyl-1,3-dihydro-2H-indol-2-one]
